According to article PMC6315438 (Metabolites, 2018):

Target: T1, aryl hydrocarbon receptor (AHR) (Homo sapiens, UniProt P35869)
T1 construct: human AHR in liver cytosol of mice expressing human AHR; also HepG2 (40/6) cells
T1 sequence (P35869 11-848): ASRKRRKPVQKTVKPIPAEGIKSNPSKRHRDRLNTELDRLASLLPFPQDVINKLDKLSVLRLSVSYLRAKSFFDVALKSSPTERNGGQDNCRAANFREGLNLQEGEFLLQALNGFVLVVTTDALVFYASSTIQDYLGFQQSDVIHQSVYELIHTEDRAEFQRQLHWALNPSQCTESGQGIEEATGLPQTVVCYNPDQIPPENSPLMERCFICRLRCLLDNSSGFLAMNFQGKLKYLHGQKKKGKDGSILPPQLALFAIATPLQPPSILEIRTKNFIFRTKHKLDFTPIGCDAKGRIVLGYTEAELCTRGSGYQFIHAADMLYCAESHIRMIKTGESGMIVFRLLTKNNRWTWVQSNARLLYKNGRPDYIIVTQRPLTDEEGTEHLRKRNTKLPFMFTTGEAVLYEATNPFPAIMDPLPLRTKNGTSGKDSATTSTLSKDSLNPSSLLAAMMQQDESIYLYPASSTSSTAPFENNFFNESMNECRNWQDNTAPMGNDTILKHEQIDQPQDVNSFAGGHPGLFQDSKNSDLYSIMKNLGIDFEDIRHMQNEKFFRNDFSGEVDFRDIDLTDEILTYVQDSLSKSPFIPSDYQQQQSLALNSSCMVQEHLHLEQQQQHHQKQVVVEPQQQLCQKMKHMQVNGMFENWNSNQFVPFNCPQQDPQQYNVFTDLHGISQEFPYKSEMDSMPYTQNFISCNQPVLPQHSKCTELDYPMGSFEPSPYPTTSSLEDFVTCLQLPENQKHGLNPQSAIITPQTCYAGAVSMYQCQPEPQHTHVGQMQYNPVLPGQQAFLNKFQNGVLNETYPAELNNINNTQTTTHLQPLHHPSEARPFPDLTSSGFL
Experiment: competition with […] photoaffinity ligand (PAL) in human AHR-expressing hepatic cytosol
Type: binding

IC50: 800 nM
SMILES: O=c1oc2cc(O)ccc2c2ccc(O)cc12 [UroA, Urolithin A]
